SMILES strings stand for the structures. ± gives the expanded uncertainty stated by the source.

A short description of the data set: refractive index (Na D-line) (dimensionless). The note with it: 298.15 K; 101.33 kPa; Liquid; Abbe refractometer.
On to `Cc1ccccc1C` [1,2-dimethylbenzene], for which the refractive index (usually the speed of light in vacuum divided by its phase velocity in the sample) amounted to 1.5018 ± 0.0005. In the case of `Cc1cccc(C)c1` [1,3-dimethylbenzene] it was 1.4943 ± 0.0005; in that of `Cc1ccc(C)cc1` [1,4-dimethylbenzene], 1.4925 ± 0.0005. To `c1ccccc1` [benzene] belongs 1.499 ± 0.0004. In the case of `CCCCCCCCCCCC` [dodecane], the refractive index was found to be 1.4275 ± 0.0005. As to `CCCCCCCCCCCCCCCC` [hexadecane], the refractive index was determined as 1.4325 ± 0.0005. For the compound `CCCCCC` [hexane], the refractive index worked out at 1.3728 ± 0.0005.

As to `Cc1ccccc1` [toluene], the refractive index turned out to be 1.494 ± 0.0004.

(Values after the NIST ThermoML archive (doi:10.1021/je010317u).)
